Columns and labels:
GPR4 [1] = molecular target: T1, GPR4 (Homo sapiens, UniProt P46093); experiment: Radioligand binding to homogenates of GPR4-transfected CHO cells; settings: GPR4-transfected CHO cell homogenates; for maximum binding capacity / Kd: 4° C.; for Kd: Scatchard analysis, [3H]SPC or [3H]16:0-LPC, read-out: dissociation constant (Kd); for competition for binding of [3H]SPC and [3H]16:0-LPC to GPR4: cold competitors
T1 construct: were used to generate full length GPR4, which was digested with EcoRI and Xba I and cloned into the pBs3HA vector; expressed in transfected cells
T1 sequence (P46093 whole entry): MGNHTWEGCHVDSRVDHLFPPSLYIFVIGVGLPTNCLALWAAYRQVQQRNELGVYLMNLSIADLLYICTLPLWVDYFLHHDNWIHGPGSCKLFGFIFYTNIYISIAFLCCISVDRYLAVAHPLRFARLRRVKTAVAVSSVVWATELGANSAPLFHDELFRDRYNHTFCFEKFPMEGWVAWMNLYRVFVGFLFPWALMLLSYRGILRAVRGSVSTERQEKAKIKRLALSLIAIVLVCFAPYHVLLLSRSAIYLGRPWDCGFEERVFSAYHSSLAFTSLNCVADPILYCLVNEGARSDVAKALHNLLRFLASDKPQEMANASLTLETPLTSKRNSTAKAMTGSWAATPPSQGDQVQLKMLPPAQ
Description: To characterize the binding of SPC and LPC to GPR4 and TDAG8, we conducted radioligand binding assays. CHO cells were chosen for GPR4 binding assays, since HEK293 cells express relatively high levels of endogenous GPR4. CHO cells stably transfected with empty vector or GPR4 were serum starved for 20 h, then collected after exposure to 2 mM EDTA in PBS. The pelleted cells were stored at −80° C. until use. Binding assays were performed essentially as described previously (Xu et al. (2000) Nat Cell Biol 2, 261-267), except binding was performed at 4° C. Briefly, frozen cells (10^6 cells/ml) were homogenized in a binding buffer. Assays were performed in 96-well plates in triplicate with 100 μl cell homogenate (equivalent to 10^5 cells/well). Different amounts of [^3H]SPC or [^3H]16:0-LPC were added to the cell homogenates in 50 μl of binding buffer, in the presence or absence of cold SPC or 16:0-LPC, or other competitors. The plates were incubated at 4° C. for 120 min, unless otherwise indicated. Cell-bound [^3H]SPC or [^3H]LPC was collected onto a filter (Printed Filtermat A, Wallac, Gaithersburg, Md.) using an automated cell harvester (HARVESTER 96, Tomtec, Orange, Conn.). Specific binding was calculated by subtraction of nonspecific binding (binding detected in the presence of 100-fold excess unlabeled SPC or 16:0-LPC) from the total binding.
Cell homogenates were used for binding assays. Binding was conducted at 4° C. for 120 min or as indicated. [^3H]SPC and [^3H]16:0-LPC specifically bound to cell homogenates from GPR4-transfected CHO cells in a time-dependent manner and reached equilibrium after 60 min incubation at 4° C. […] The maximum binding capacities for SPC and 16:0-LPC were 996 fmole/10^5 cells for SPC and 1,528 fmole/10^5 cells for 16:0-LPC. […] Binding assays using [^3H]18:0-LPC gave similar results. We also tested the four glycosphingolipids, Psy, Glu-Sph, Gal-Cer, and Lac-Cer, for their ability to compete for the binding of [^3H]SPC and [^3H]16:0-LPC to GPR4.

GPR4 [2] = molecular target: T1, GPR4; experiment: Single-cell intracellular calcium assay (fura-2) in GPR4-GFP-transfected MCF10A cells; type: cell-based; settings: for increase in [Ca2+]i in GPR4- vs vector-transfected/parental MCF10A cells: lipid at 1 μM; for EC50: GPR4-transfected MCF10A cells, 1 mM EGTA, read-out: EC50 of calcium mobilization; for block of the lipid-induced increase in [Ca2+]i by BSA: lipid 1 μM preincubated with 0.5% fatty acid-free BSA, lipid:BSA approximately 1:75
Description: Measurement of [Ca^2+]i, was performed as described previously in Xu et al. (2000) Nat Cell Biol 2, 261-267. Briefly, pGPR4-GFP-transfected MCF10A cells were grown in specialized glass-bottom dishes (Bioptech, Inc., Butler, Pa.) and loaded with fura-2 in HEPES buffered saline. Using a dual-wavelength spectrofluorometer (RFK-6002, Photon Technology Int'l, So. Brunswick, N.J.) coupled to an inverted fluorescence microscope (Olympus, IX-70, Lake Success, N.Y.), GFP-positive cells were identified using an excitation wavelength of 488 nm, a dichroic 505 nm long-pass filter and an emitter filter at bandpass of 535 nm (Chroma Technology, Brattleboro, Vt.). Measurements of [Ca^2+]i were performed on individual GPR4-GFP positive cells at excitation wavelengths of 340 and 380 nm and an emission wavelength of 510 nm. Conversion of the 340/380 ratio value into [Ca^2+]i in nM was estimated by comparing the cellular fluorescence ratio with ratios acquired using fura-2 (free acid) in buffers containing known Ca^2+ concentrations. [Ca^2+]i was then calculated as described by Grynkiewicz et al. (1985) J Biol Chem 260, 3440-3450. All calcium assays were performed in the presence of 1 mM EGTA in the assay buffers. Therefore, intracellular calcium release, not calcium influx, was analyzed.
To test whether GPR4 is a receptor for SPC, MCF10A cells were transiently transfected with pGPR4-GFP.
The GFP receptor fusion was used to identify positively transfected cells, and single-cell calcium assays were performed as described in our previous studies, such as Xu et al. (2000) Nat Cell Biol 2, 261-267.

GPR4 [3] = molecular target: T1, GPR4; experiment: ERK MAP kinase activation (phospho-ERK Western blot) in GPR4-infected Swiss 3T3 cells; type: cell-based; settings: for concentration at which ERK activation was evident / time point at which ERK activation was evident: GPR4-infected Swiss 3T3 cells; for GPR4-dependent ERK activation (in words): GPR4-ires-GFP vs GFP Swiss 3T3 cells, SPC and LPC 100 nM
Method in brief: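 Swiss 3T3 cells transduced with MSCV GPR4-ires-GFP or empty vector, FACS-sorted for GFP, serum-starved overnight, then stimulated with lipids in DMEM. Phospho-ERK1/2 detected by Western blot with ECL, normalised to total ERK; some cells pretreated with 100 ng/ml PTX for 12–16 h before SPC or LPC.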

Row | Compound | maximum binding capacity (GPR4 [1]) | Kd (GPR4 [1]) [nM] | competition for binding of [3H]SPC and [3H]16:0-LPC to GPR4 (GPR4 [1]) | increase in [Ca2+]i in GPR4- vs vector-transfected/parental MCF10A cells (GPR4 [2]) | EC50 (GPR4 [2]) [nM] | block of the lipid-induced increase in [Ca2+]i by BSA (GPR4 [2]) | concentration at which ERK activation was evident (GPR4 [3]) | time point at which ERK activation was evident (GPR4 [3]) [min] | GPR4-dependent ERK activation (in words) (GPR4 [3])
1 | CCCCCCCCCCCCCCCC(=O)OC[C@@H](O)COP(=O)([O-])OCC[N+](C)(C)C [16:0-LPC] | 1,528 fmole/10^5 cells | 159 | successfully competed for binding | stimulated to produce increased [Ca^2+]i | – | – | – | – | –
2 | CCCCCCCCCCCCC/C=C/[C@@H](O)[C@@H](N)COP(=O)([O-])OCC[N+](C)(C)C [SPC, Sphingosylphosphorylcholine] | 996 fmole/10^5 cells | 36 | successfully competed for binding | stimulated an increase in [Ca^2+]i in GPR4-, but not vector-transfected MCF10A cells | 105 | more than 50% | approximately 10 nM | 1 | enhanced ERK activation
3 | lysophosphatidylcholine [LPC] | – | 159 | – | – | 1100 | > 95% | ~100 nM | 5 | enhanced ERK activation

Reference: patent US20020107197A1, “Ligands for G protein coupled receptors and methods of using them” (priority 2000, published 2002)
